Among the data in ChEMBL document CHEMBL5154884, “Discovery of a Novel Src Homology-2 Domain Containing Protein Tyrosine Phosphatase-2 (SHP2) and Cyclin-Dependent Kinase 4 (CDK4) Dual Inhibitor for the Treatment of Triple-Negative Breast Cancer” (J Med Chem, 2022) are IC50 values, retold here.

A value given as a limit tells only on which side of the number the result lay.

In one assay the target is CDK4/Cyclin D3 (Homo sapiens, UniProt P11802). The assay can be described thus: Inhibition of recombinant N-terminal GST/His6-fusion tagged human CDK4/Cyclin D3 expressed in Sf9 insect cells using 5-FAM-IPTSPITTTYFFFKKK as substrate preincubated for 10 mins followed by substrate addition and incubated for 3 hrs in presence of ATP by caliper mobility shift analysis.
Chain of CDK4/Cyclin D3 (P11802 whole entry, the tested form may be a part): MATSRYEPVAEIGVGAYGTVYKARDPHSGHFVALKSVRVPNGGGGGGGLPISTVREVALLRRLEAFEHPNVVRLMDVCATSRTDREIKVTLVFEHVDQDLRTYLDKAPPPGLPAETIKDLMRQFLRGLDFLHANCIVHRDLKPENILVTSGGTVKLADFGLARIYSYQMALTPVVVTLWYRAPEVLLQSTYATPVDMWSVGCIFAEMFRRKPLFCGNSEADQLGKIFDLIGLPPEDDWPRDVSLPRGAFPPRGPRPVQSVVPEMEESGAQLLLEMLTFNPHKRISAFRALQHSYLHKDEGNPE
Chain of CDK4/Cyclin D3 (P30281 whole entry, further chain, the tested form may be a part): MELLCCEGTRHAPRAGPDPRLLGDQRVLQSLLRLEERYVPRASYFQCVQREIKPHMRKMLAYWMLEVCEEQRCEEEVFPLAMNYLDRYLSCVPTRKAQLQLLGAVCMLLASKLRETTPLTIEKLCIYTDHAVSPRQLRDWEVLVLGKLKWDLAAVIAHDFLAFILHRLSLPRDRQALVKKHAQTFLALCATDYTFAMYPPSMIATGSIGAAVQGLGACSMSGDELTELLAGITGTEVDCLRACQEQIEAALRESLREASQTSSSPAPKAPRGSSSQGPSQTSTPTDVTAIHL
For assay [1], the target named is T1, Tyrosine-protein phosphatase non-receptor type 11 (Homo sapiens, UniProt Q06124).
T1 sequence (Q06124 whole entry): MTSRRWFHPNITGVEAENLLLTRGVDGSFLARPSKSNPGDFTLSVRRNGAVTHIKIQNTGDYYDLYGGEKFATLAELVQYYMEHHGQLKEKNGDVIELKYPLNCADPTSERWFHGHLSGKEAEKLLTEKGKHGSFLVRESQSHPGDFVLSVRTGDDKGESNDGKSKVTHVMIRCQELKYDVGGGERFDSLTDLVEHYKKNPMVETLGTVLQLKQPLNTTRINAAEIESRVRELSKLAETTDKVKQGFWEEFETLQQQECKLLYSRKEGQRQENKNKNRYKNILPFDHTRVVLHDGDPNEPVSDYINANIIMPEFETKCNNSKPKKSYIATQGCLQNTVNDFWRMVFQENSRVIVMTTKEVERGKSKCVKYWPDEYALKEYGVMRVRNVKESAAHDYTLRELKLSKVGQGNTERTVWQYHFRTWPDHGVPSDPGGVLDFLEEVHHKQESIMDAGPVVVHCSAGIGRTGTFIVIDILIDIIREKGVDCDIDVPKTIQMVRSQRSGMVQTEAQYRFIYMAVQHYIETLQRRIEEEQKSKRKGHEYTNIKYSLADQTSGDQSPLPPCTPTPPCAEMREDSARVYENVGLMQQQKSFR
Put plainly: Inhibition of SHP2 (unknown origin) using DiFMUP as substrate incubated for 60 mins followed by substrate addition for 30 mins by microplate reader method.

A word on the IC50: it is the point on the concentration scale where inhibition reaches its midpoint. Turning to `Cc1nc2c(F)cc(-c3nc(Nc4cnc(Sc5cnc(N6CCC7(CC6)CO[C@@H](C)[C@H]7N)cn5)c(Cl)c4)ncc3F)cc2n1C(C)C`, the IC50 on CDK4/Cyclin D3 was 9.1 nM; in assay [1], 205 nM.

With `CN(C)C(=O)c1cc2cnc(Nc3nccc(Sc4cnc(N5CCC6(CC5)Cc5ccccc5[C@H]6N)cn4)c3Cl)nc2n1C1CCCC1`, the IC50 is over 1000 nM on CDK4/Cyclin D3 and 3.2 nM in assay [1].

Regarding `Cc1nc2c(F)cc(-c3nc(Nc4cc(Sc5cnc(N6CCC7(CC6)CO[C@@H](C)[C@H]7N)cn5)c(Cl)cn4)ncc3F)cc2n1C(C)C`, the half-maximal inhibitory concentration (IC50) on CDK4/Cyclin D3 is over 1000 nM.

As for `Cc1nc2c(F)cc(-c3nc(Nc4ccc(Sc5cnc(N6CCC7(CC6)Cc6ccccc6[C@H]7N)cn5)c(Cl)n4)ncc3F)cc2n1C(C)C`, the half-maximal inhibitory concentration (IC50) at CDK4/Cyclin D3 stood at 445 nM; in assay [1] it was 673 nM.

As for `CN(C)C(=O)c1cc2cnc(Sc3cnc(N4CCC(C)(N)CC4)cn3)nc2n1C1CCCC1`, the IC50 (on CDK4/Cyclin D3; in assay [1]) was over 1000 nM each time.

In the case of `Cc1nc2c(F)cc(-c3nc(Nc4ccc(Cl)c(Sc5cnc(N6CCC7(CC6)CO[C@@H](C)[C@H]7N)cn5)n4)ncc3F)cc2n1C(C)C`, the IC50 on CDK4/Cyclin D3 amounted to 212 nM; in assay [1], 618 nM.

For the compound `CN(C)C(=O)c1cc2cnc(Nc3nccc(Sc4cnc(N5CCC(C)(N)CC5)cn4)c3Cl)nc2n1C1CCCC1`, the IC50 was 443 nM at CDK4/Cyclin D3 and 31.3 nM in assay [1].

As to `Cc1nc2c(F)cc(-c3nc(Nc4ccc(Sc5cnc(N6CCC7(CC6)CO[C@@H](C)[C@H]7N)cn5)c(Cl)n4)ncc3F)cc2n1C(C)C`, the concentration for half-maximal inhibition (IC50) at CDK4/Cyclin D3 turned out to be 139 nM.

Regarding `CN(C)C(=O)c1cc2cnc(Nc3ccc(Sc4cnc(N5CCC(C)(N)CC5)cn4)c(Cl)n3)nc2n1C1CCCC1`, the 50% inhibitory concentration (IC50) at CDK4/Cyclin D3 was 51.1 nM.
